By IC50 is commonly meant the concentration that inhibits the measured activity by half. A higher IC50 goes with a need for much substance.

For the first assay, the target named is EGFR (human) (UniProt P00533). Description: Enzyme Assay.
Sequence of EGFR (human) (P00533 whole entry, looked up): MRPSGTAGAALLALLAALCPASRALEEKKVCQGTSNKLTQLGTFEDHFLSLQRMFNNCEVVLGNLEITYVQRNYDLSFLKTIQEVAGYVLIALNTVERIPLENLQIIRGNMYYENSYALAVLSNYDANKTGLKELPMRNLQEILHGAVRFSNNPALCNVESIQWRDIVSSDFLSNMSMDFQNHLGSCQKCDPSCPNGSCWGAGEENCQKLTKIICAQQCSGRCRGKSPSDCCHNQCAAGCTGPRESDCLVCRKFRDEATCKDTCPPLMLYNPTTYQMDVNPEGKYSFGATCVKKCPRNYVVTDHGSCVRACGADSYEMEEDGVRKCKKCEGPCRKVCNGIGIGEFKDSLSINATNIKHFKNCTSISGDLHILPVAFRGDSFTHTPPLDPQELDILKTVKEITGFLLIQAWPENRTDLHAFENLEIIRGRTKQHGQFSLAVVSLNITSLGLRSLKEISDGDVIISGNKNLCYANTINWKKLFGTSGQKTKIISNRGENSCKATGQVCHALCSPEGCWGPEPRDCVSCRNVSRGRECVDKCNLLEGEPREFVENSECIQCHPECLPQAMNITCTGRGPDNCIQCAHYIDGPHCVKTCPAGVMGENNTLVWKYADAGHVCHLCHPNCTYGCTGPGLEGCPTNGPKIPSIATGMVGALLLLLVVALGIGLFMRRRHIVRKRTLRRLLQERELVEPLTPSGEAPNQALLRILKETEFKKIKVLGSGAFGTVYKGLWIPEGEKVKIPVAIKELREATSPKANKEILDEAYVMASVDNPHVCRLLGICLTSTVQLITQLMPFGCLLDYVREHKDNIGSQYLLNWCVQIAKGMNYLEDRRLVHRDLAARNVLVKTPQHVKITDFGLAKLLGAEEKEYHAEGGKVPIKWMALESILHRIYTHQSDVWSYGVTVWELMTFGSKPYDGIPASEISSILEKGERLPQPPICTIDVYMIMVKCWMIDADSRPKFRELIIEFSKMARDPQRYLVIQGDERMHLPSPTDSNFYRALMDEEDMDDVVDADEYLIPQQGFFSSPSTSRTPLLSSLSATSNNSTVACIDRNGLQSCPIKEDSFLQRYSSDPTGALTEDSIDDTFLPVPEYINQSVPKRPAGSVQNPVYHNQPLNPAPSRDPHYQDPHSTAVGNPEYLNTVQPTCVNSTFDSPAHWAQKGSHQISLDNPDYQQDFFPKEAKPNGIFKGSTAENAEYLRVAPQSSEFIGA
Settings: not given
In the case of `OC[C@@H](Nc1ncnc2sc(-c3ccccc3O)cc12)c1ccccc1`, the IC50 turned out to be 3.4 nM.

`COc1cc(C=O)ccc1-c1cc2c(N[C@H](CO)c3ccccc3)ncnc2[nH]1` returned a half-inhibitory concentration (IC50) of 0.3 nM.

`Cc1cccc(-c2cc3c(N[C@H](C)c4ccccc4)ncnc3s2)c1` returned an IC50 of 77 nM.

For `OC[C@@H](Nc1ncnc2oc(-c3ccc(O)cc3)cc12)c1ccccc1`, the IC50 came out at 2 nM.

`COc1ccc(CO)cc1-c1cc2c(N[C@H](C)c3ccccc3)ncnc2s1` gave a half-inhibitory concentration (IC50) of 4.7 nM.

In the case of `COc1ccccc1-c1cc2c(N[C@H](C)c3ccccc3)ncnc2s1`, the half-inhibitory concentration (IC50) is 6.7 nM.

Consider `COc1cccc(OC)c1-c1cc2c(N[C@H](C)c3ccccc3)ncnc2s1`, for which the half-inhibitory concentration (IC50) came to 1.1 nM.

Consider `COc1ccc(-c2cc3c(N[C@H](CO)c4ccccc4)ncnc3o2)cc1`, for which the IC50 came out at 2.7 nM.

As for `C[C@@H](Nc1ncnc2sc(-c3ccccc3CO)cc12)c1ccccc1`, the concentration for half-maximal inhibition (IC50) was found to be 38 nM.

Turning to `OCc1ccc(-c2cc3c(N[C@H](CO)c4ccccc4)ncnc3[nH]2)cc1`, the IC50 worked out at 0.4 nM.

For `COc1cc(CO)ccc1-c1cc2c(N[C@H](C)c3ccccc3)ncnc2s1`, the IC50 amounted to 0.6 nM.

For the molecule `COc1cccc(OC)c1-c1cc2c(N[C@H](CO)c3ccccc3)ncnc2s1`, the half-maximal inhibitory concentration (IC50) came to 0.79 nM.

For `C[C@@H](Nc1ncnc2sc(-c3ccc(CO)cc3)cc12)c1ccccc1`, the half-inhibitory concentration (IC50) stood at 6.6 nM.

As to `Cc1ccccc1-c1cc2c(N[C@H](C)c3ccccc3)ncnc2s1`, the IC50 is 153 nM.

Turning to `Cc1ccc(-c2cc3c(N[C@H](C)c4ccccc4)ncnc3s2)cc1`, the IC50 came to 105 nM.

Molecule `CC[C@@H](Nc1ncnc2sc(-c3ccccc3O)cc12)c1ccccc1` registered an IC50 of 33 nM.

`COc1cc(C=O)ccc1-c1cc2c(NCc3ccccc3)ncnc2s1` came in with an IC50 of 6.3 nM.

In turn, `COc1cc(F)ccc1-c1cc2c(N[C@H](CO)c3ccccc3)ncnc2[nH]1` showed an IC50 of 1 nM.

`COc1ccccc1-c1cc2c(N[C@H](CO)c3ccccc3)ncnc2[nH]1` displayed a half-maximal inhibitory concentration (IC50) of 0.5 nM.

Molecule `OC[C@@H](Nc1ncnc2[nH]c(-c3ccccc3)cc12)c1ccccc1` registered a 50% inhibitory concentration (IC50) of 0.7 nM.

For `C[C@@H](Nc1ncnc2sc(-c3cccc(O)c3)cc12)c1ccccc1`, the IC50 was determined as 45 nM.

Take `C[C@@H](Nc1ncnc2sc(-c3ccccc3)cc12)c1ccccc1`: the IC50 turned out to be 59 nM.

`COc1ccc(C=O)cc1-c1cc2c(N[C@H](C)c3ccccc3)ncnc2s1` returned a half-maximal inhibitory concentration (IC50) of 2.6 nM.

Take `COc1cc(CO)ccc1-c1cc2c(N[C@H](CO)c3ccc(F)cc3)ncnc2[nH]1`: the IC50 was 0.3 nM.

For `C[C@@H](Nc1ncnc2sc(-c3ccccc3O)cc12)c1ccccc1`, the IC50 was 35 nM.

Molecule `COc1cc(C=O)ccc1-c1cc2c(Nc3ccccc3)ncnc2s1` registered an IC50 of 20 nM.

For `COc1c(CO)cccc1-c1cc2c(N[C@H](C)c3ccccc3)ncnc2s1`, the IC50 was determined as 1.6 nM.

With `OCc1ccc(-c2cc3c(N[C@H](CO)c4ccccc4)ncnc3s2)cc1`, the IC50 stood at 2.2 nM.

As to `COc1ccc(-c2cc3c(N[C@H](C)c4ccccc4)ncnc3s2)cc1`, the IC50 was determined as 54 nM.

As for `COC[C@@H](Nc1ncnc2[nH]c(-c3ccccc3)cc12)c1ccccc1`, the IC50 is 1.8 nM.

`COc1cc(F)ccc1-c1cc2c(N[C@H](C)c3ccccc3)ncnc2s1` had an IC50 of 6.3 nM.

`COc1cc(C=O)ccc1-c1cc2c(N[C@H](C)c3ccccc3)ncnc2[nH]1`: the IC50 worked out at 0.5 nM.

Molecule `COc1cc(C=O)ccc1-c1cc2c(N[C@H](C)c3ccccc3)ncnc2s1` showed a concentration for half-maximal inhibition (IC50) of 3 nM.

`C[C@@H](Nc1ncnc2sc(-c3ccc(O)cc3)cc12)c1ccccc1` came in with an IC50 of 84 nM.

Molecule `COc1cc(C=O)ccc1-c1cc2c(N[C@H](CO)c3ccc(F)cc3)ncnc2[nH]1` had a concentration for half-maximal inhibition (IC50) of 0.6 nM.

Take `COc1cc(CO)ccc1-c1cc2c(Nc3ccccc3)ncnc2s1`: the IC50 was 3.1 nM.

`C[C@@H](Nc1ncnc2sc(-c3cccc(CO)c3)cc12)c1ccccc1` had a half-inhibitory concentration (IC50) of 9.1 nM.

Take `COc1cc(C=O)ccc1-c1cc2c(NCc3ccccc3)ncnc2[nH]1`: the IC50 turned out to be 2.1 nM.

`COc1ccccc1-c1cc2c(N[C@H](CO)c3ccccc3)ncnc2s1` returned an IC50 of 0.9 nM.

For `COc1cccc(-c2cc3c(N[C@H](C)c4ccccc4)ncnc3s2)c1`, the IC50 turned out to be 37 nM.

`Oc1ccccc1-c1cc2c(NCc3ccccc3)ncnc2s1` displayed an IC50 of 29 nM.

In turn, `COc1cc(CO)ccc1-c1cc2c(NCc3ccccc3)ncnc2[nH]1` yielded a half-maximal inhibitory concentration (IC50) of 0.5 nM.

`COc1ccc(-c2cc3c(N[C@H](C)c4ccccc4)ncnc3s2)c(OC)c1` had an IC50 of 5 nM.

As to `COc1cc(CO)ccc1-c1cc2c(N[C@H](C)c3ccccc3)ncnc2[nH]1`, the half-maximal inhibitory concentration (IC50) was 0.2 nM.

`COc1cc(CO)ccc1-c1cc2c(N[C@H](CO)c3ccccc3)ncnc2s1` showed a half-maximal inhibitory concentration (IC50) of 0.3 nM.

The molecule `COc1cc(CO)ccc1-c1cc2c(NCc3ccccc3)ncnc2s1` had an IC50 of 4.8 nM.

Regarding `COc1cc(C=O)ccc1-c1cc2c(N[C@H](CO)c3ccccc3)ncnc2s1`, the IC50 was found to be 0.8 nM.

The target of a further assay is EGFR (human), P00533 [L858R]. Description: Enzyme Assay.
Sequence of EGFR (human), P00533 [L858R] (P00533 whole entry L858R, looked up): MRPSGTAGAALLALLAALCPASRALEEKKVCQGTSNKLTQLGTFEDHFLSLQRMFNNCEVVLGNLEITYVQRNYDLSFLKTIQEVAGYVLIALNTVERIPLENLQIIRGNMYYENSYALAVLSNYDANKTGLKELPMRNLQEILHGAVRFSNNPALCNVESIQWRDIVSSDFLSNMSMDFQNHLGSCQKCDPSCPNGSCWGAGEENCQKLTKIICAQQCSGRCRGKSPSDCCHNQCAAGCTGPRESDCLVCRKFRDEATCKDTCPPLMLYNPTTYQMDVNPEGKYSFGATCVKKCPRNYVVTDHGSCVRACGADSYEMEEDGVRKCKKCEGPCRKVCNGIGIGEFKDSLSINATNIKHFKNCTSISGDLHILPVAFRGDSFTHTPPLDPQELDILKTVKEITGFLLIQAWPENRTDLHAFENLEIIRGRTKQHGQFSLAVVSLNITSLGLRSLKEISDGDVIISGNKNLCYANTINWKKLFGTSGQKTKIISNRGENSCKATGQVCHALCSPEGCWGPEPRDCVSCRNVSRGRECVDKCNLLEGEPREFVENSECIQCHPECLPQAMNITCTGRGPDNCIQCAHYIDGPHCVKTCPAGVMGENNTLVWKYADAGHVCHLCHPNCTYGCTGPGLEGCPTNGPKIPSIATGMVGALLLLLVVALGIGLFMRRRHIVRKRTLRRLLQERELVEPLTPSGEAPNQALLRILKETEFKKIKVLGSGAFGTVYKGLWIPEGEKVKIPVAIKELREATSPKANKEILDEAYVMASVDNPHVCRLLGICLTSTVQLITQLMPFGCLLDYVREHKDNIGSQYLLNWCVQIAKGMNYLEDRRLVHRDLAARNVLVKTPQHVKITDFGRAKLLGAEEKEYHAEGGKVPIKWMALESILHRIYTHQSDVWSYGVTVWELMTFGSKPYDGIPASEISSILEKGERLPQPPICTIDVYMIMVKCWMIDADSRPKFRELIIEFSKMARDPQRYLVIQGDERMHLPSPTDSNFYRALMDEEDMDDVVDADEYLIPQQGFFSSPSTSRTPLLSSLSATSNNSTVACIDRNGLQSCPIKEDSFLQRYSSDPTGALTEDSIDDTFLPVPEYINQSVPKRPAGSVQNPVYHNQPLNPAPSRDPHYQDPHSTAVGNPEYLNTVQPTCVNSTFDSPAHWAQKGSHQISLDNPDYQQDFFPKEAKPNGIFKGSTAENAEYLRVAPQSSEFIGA
Settings: not given
In turn, `COc1ccccc1-c1cc2c(N[C@H](C)c3ccccc3)ncnc2s1` came in with an IC50 of 7.71 nM.

`OCc1ccc(-c2cc3c(N[C@H](CO)c4ccccc4)ncnc3[nH]2)cc1` registered an IC50 of 0.4 nM.

The molecule `COc1cc(CO)ccc1-c1cc2c(N[C@H](C)c3ccccc3)ncnc2s1` showed a 50% inhibitory concentration (IC50) of 0.7 nM.

Molecule `COc1ccccc1-c1cc2c(N[C@H](CO)c3ccccc3)ncnc2[nH]1` showed an IC50 of 0.1 nM.

`OC[C@@H](Nc1ncnc2[nH]c(-c3ccccc3)cc12)c1ccccc1` had a 50% inhibitory concentration (IC50) of 1.3 nM.

For the molecule `COc1cc(CO)ccc1-c1cc2c(N[C@H](CO)c3ccc(F)cc3)ncnc2[nH]1`, the IC50 came out at 0.6 nM.

Molecule `OCc1ccc(-c2cc3c(N[C@H](CO)c4ccccc4)ncnc3s2)cc1` had an IC50 of 2.3 nM.

`COc1cc(C=O)ccc1-c1cc2c(N[C@H](C)c3ccccc3)ncnc2s1` showed an IC50 of 4.3 nM.

Regarding `COc1ccccc1-c1cc2c(N[C@H](CO)c3ccccc3)ncnc2s1`, the IC50 stood at 1.3 nM.

Consider `COc1cc(CO)ccc1-c1cc2c(NCc3ccccc3)ncnc2[nH]1`, for which the IC50 came to 0.8 nM.

Consider `COc1cc(CO)ccc1-c1cc2c(N[C@H](C)c3ccccc3)ncnc2[nH]1`, for which the half-maximal inhibitory concentration (IC50) came to 0.4 nM.

Regarding `COc1cc(CO)ccc1-c1cc2c(N[C@H](CO)c3ccccc3)ncnc2s1`, the concentration for half-maximal inhibition (IC50) was 0.3 nM.

`COc1cc(C=O)ccc1-c1cc2c(N[C@H](CO)c3ccccc3)ncnc2s1` had an IC50 of 0.9 nM.

For the next assay, the target named is EGFR (human), P00533 [L861Q]. Description: Enzyme Assay.
Sequence of EGFR (human), P00533 [L861Q] (P00533 whole entry L861Q, looked up): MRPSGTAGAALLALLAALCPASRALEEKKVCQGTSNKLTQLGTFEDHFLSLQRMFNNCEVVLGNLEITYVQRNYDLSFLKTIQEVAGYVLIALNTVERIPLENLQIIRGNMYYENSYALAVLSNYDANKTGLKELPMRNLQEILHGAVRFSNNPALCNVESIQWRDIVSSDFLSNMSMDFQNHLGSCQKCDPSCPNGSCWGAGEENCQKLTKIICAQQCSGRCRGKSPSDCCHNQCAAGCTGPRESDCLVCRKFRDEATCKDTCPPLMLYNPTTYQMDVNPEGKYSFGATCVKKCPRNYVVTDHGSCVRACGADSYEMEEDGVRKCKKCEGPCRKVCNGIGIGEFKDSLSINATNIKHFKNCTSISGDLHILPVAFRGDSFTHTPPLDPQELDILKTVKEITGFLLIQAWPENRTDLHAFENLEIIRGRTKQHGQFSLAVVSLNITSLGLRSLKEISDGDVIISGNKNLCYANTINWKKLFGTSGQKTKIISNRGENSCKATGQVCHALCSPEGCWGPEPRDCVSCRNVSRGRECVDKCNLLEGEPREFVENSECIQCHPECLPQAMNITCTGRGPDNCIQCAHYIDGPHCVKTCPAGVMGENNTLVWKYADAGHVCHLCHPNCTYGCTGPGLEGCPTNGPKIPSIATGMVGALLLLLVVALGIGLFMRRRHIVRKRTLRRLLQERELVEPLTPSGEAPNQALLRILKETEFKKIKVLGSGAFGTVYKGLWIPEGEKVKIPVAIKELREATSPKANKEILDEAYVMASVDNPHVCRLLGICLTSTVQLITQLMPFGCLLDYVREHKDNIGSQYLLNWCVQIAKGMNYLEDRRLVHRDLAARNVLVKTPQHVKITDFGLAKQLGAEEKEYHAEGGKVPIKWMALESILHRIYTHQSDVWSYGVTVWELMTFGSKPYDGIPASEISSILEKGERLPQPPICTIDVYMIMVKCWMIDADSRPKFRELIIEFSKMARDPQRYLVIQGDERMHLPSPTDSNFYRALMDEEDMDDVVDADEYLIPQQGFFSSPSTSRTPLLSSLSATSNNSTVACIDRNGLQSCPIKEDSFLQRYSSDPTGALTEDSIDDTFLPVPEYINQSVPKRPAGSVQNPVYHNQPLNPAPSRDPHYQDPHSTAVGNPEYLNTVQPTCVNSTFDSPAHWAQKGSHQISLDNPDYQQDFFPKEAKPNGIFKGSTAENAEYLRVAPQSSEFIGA
Settings: not given
For `COc1ccccc1-c1cc2c(N[C@H](C)c3ccccc3)ncnc2s1`, the IC50 amounted to 9.06 nM.

As for `OCc1ccc(-c2cc3c(N[C@H](CO)c4ccccc4)ncnc3[nH]2)cc1`, the IC50 was determined as 0.2 nM.

Take `COc1cc(CO)ccc1-c1cc2c(N[C@H](C)c3ccccc3)ncnc2s1`: the IC50 came out at 0.6 nM.

Molecule `COc1ccccc1-c1cc2c(N[C@H](CO)c3ccccc3)ncnc2[nH]1` had a 50% inhibitory concentration (IC50) of 0.2 nM.

In the case of `OC[C@@H](Nc1ncnc2[nH]c(-c3ccccc3)cc12)c1ccccc1`, the IC50 was 1 nM.

In the case of `COc1cc(CO)ccc1-c1cc2c(N[C@H](CO)c3ccc(F)cc3)ncnc2[nH]1`, the IC50 turned out to be 0.5 nM.

Regarding `OCc1ccc(-c2cc3c(N[C@H](CO)c4ccccc4)ncnc3s2)cc1`, the 50% inhibitory concentration (IC50) came out at 1.6 nM.

In turn, `COc1cc(C=O)ccc1-c1cc2c(N[C@H](C)c3ccccc3)ncnc2s1` displayed an IC50 of 3.9 nM.

As to `COc1ccccc1-c1cc2c(N[C@H](CO)c3ccccc3)ncnc2s1`, the half-maximal inhibitory concentration (IC50) is 1 nM.

Regarding `COc1cc(CO)ccc1-c1cc2c(NCc3ccccc3)ncnc2[nH]1`, the IC50 amounted to 0.4 nM.

The molecule `COc1cc(CO)ccc1-c1cc2c(N[C@H](C)c3ccccc3)ncnc2[nH]1` yielded a half-inhibitory concentration (IC50) of 0.2 nM.

Turning to `COc1cc(CO)ccc1-c1cc2c(N[C@H](CO)c3ccccc3)ncnc2s1`, the IC50 came out at 0.3 nM.

As for `COc1cc(C=O)ccc1-c1cc2c(N[C@H](CO)c3ccccc3)ncnc2s1`, the 50% inhibitory concentration (IC50) was 0.8 nM.

The next assay has as its target EGFR (human), P00533 [L858R]. Description: Cell-Based Assay. The conditions noted are these: ba/f3.
`OCc1ccc(-c2cc3c(N[C@H](CO)c4ccccc4)ncnc3[nH]2)cc1` showed a concentration for half-maximal inhibition (IC50) of 172 nM.

Turning to `COc1ccccc1-c1cc2c(N[C@H](CO)c3ccccc3)ncnc2[nH]1`, the IC50 was 134 nM.

Regarding `OC[C@@H](Nc1ncnc2[nH]c(-c3ccccc3)cc12)c1ccccc1`, the IC50 is 127 nM.

Consider `COc1cc(CO)ccc1-c1cc2c(N[C@H](CO)c3ccc(F)cc3)ncnc2[nH]1`, for which the 50% inhibitory concentration (IC50) is 83 nM.

In turn, `COc1cc(CO)ccc1-c1cc2c(N[C@H](C)c3ccccc3)ncnc2[nH]1` returned an IC50 of 99 nM.

The record behind these values is the Kinase Knowledgebase extract (Sharma et al. 2016).
